Source: patent US8716226B2, “3,5 phenyl-substituted beta amino acid derivatives as integrin antagonists” (Saint Louis University, priority 2012, dated 2014)
pIC50: −log10 of the molar value.

Columns and labels:
[1] = target: T1, recombinant human biotinylated integrin αvβ8 (Homo sapiens, UniProt P06756+P26012); assay: Solid phase receptor assay for αvβ8 function; settings: purified integrin binding to LAP-coated plate
T1 construct: biotin (biotinylated heterodimer); purchased R&D Systems
Procedure: Solid Phase Receptor Assay for αvβ8 Function.
Purified human LAP protein (R&D Systems, Inc) diluted to 0.5 μg/ml in TBS buffer (25 mM Tris 7.4, 137 mM NaCl, 2.7 mM KCl, 1 mM CaCl2, 1 mM MgCl2, 1 mM MnCl2) was added to wells (100 μl/well) of a 96-well half-well transparent microtiter plate (Costar 3690), and incubated overnight at 4° C. Wells were washed 3 times with 150 μl TBS, and 200 μl of blocking buffer (TBS with 1% bovine serum albumin) were added. The plate was incubated for 1 hr at 37° C., and then washed 3× with TBS/0.1% bovine serum albumin. Purified recombinant human biotinylated integrin αvβ8 (R&D Systems) was diluted to 0.1 μg/ml in TBS/0.1% bovine serum albumin. Compounds were diluted into the integrin solution and then 50 μl was added to empty wells of the washed LAP-coated plate, according to a standard template, with each sample repeated in triplicate. After incubation for one hour at room temperature, the plate was washed 3× with 150 μl of TBS/0.1% BSA. 50 μl of streptavidin-conjugated horseradish peroxidase (R&D Systems) was added to the wells, and the plate incubated for 20 min at room temperature. […] Plates were read by colorimetric detection at 650 nm wavelength using a Tecan Safire II plate reader. Concentration-response curves were constructed by non-linear regression (best fit) analysis, and IC50 values were calculated for each compound.

αvβ5 = target: T2, αvβ5 (Homo sapiens, UniProt P06756+P18084); assay: 293/b5 cell adhesion assay for αvβ5 function; format: cell-based; settings: 293/b5 cells, adhesion to human vitronectin
T2 construct: expressed in transfected cells; host or cells: HEK 293 (293/b5)
T2 sequence (P06756 31-889 limits assumed): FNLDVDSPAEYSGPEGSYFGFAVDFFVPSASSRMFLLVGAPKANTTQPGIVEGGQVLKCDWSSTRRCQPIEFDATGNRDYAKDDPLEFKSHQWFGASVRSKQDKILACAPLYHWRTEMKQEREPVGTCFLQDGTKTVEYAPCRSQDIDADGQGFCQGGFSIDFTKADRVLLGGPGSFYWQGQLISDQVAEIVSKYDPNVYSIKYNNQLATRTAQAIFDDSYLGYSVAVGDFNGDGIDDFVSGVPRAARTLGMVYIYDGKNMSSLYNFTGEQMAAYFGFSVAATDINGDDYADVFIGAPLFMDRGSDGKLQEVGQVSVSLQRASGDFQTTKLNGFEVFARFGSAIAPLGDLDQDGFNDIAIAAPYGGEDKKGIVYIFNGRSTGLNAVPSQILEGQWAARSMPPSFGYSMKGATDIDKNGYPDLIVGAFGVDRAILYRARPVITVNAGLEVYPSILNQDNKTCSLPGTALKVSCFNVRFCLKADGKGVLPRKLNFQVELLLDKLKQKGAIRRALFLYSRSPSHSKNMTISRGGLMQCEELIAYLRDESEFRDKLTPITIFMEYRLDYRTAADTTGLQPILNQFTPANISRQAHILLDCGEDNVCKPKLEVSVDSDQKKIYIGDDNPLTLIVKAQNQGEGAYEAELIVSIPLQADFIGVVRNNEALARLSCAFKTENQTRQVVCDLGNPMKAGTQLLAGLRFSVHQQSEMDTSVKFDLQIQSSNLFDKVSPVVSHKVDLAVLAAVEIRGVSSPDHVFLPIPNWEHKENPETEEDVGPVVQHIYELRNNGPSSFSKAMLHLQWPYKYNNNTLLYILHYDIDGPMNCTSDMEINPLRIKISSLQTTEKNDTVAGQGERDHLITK
T2 sequence (P06756 891-1048 partner limits assumed): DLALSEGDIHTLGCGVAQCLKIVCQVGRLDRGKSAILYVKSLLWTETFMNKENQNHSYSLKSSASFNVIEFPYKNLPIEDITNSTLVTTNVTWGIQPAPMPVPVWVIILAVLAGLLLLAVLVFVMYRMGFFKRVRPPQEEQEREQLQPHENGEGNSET
T2 sequence (P18084 24-799): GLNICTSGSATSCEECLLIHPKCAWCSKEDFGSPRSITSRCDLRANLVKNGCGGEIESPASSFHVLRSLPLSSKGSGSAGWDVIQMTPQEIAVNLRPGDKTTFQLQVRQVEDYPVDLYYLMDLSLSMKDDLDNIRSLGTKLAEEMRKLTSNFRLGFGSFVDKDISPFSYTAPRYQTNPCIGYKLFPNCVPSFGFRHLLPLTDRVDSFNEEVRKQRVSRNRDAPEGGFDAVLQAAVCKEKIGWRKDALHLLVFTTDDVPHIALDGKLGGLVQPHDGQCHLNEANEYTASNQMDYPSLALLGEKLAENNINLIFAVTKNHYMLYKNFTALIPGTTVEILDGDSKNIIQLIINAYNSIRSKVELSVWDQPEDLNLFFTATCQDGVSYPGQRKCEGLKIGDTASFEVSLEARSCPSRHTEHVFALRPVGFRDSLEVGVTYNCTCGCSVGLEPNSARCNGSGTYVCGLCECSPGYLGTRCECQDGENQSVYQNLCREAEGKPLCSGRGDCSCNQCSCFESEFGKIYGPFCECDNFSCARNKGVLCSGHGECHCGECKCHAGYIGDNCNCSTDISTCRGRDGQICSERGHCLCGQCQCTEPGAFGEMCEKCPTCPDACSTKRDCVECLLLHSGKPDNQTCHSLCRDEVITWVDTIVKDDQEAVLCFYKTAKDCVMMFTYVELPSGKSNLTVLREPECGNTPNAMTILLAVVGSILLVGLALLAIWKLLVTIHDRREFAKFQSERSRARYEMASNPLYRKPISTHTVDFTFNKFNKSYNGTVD
Procedure: 293/b5 Cell Adhesion Assay for αvβ5 Function.
Purified human vitronectin (Calbiochem/EMD Biosciences) diluted to 0.25 μg/ml in TS buffer (25 mM Tris 7.4, 150 mM NaCl) was added to wells (100 μl/well) of a 96-well microtiter plate (Immulon 2HB 96-well; VWR Scientific) and incubated overnight at 4° C. The solution in each well was then replaced with 200 μl of blocking buffer (TS with 1% bovine serum albumin), and the plate incubated for 1 hr at 37° C. Compounds were diluted in test tubes to 2× the peak testing concentration in cell adhesion buffer consisting of Hanks Buffered Salts Solution (HBSS, cation-free, Sigma), 0.1% bovine serum albumin, 25 mM HEPES, and 200 μM MnCl2. […] The cells were washed with the cell adhesion buffer, counted using a hemocytometer, centrifuged and resuspended in cell adhesion buffer at 3×10^6 cells/ml. […] Remaining attached cells were detected by addition of 100 μl/well p-nitrophenylphosphate (Sigma) solution (15 mg tablet dissolved in 25 ml 50 mM NaAcetate, pH5; 0.5% Triton-X-100), incubation for 30 min at 37° C., and then addition of 50 μl/well 1N NaOH to stop the enzyme reaction. Plates were read by colorimetric detection at 405 nm wavelength using a Tecan Safire II plate reader. Concentration-response curves were constructed by non-linear regression (best fit) analysis, and IC50 values were calculated for each compound. […]

T1 sequence (P06756 31-889 limits assumed): as the sequence (P06756 31-889 limits assumed) above
T1 sequence (P06756 891-992 partner limits assumed): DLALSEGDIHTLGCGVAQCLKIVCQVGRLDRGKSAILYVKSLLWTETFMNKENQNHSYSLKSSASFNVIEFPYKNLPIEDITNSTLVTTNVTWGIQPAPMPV
T1 sequence (P26012 43-684 limits assumed): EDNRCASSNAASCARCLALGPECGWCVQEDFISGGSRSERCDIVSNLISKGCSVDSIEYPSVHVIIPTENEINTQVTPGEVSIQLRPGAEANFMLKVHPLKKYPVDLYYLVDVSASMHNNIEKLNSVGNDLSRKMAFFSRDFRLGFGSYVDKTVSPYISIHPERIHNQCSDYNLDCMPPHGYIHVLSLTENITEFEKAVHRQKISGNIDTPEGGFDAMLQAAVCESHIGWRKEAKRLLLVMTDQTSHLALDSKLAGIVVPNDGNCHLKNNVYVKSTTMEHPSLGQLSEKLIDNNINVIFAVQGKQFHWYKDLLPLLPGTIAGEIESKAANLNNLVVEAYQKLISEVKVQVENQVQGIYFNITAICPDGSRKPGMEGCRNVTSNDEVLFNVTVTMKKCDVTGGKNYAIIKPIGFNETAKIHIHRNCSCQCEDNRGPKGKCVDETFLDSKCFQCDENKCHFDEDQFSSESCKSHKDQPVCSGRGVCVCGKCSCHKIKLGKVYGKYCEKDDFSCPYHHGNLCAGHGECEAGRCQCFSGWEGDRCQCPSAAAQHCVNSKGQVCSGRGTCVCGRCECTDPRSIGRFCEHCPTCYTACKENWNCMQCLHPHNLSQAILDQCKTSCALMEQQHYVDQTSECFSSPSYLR

CC(C)(C)c1cc(Br)cc([C@H](CC(=O)O)NC(=O)CNC(=O)c2cc(O)cc(NC3=NCC(O)CN3)c2)c1 (stereo partly drawn) [Example 1, (3S)—N-[3-hydroxy-5-[(1,4,5,6-tetrahydro-5-hydroxy-2-pyrimidinyl)amino]benzoyl]glycyl-3-(3-bromo-5-tert-butylphenyl)-β-alanine] showed a pIC50 [1] of 9.64 and a pIC50 (αvβ5) of 7.29.
